Test results: patent publication EP2087894B1, “FORMULATIONS COMPRISING PICEID ABLE TO PREVENT AND INHIBIT LIPID PEROXIDATION” (Glures S.R.L., priority 2008, dated 2009)

Assays:
[1] = Inhibition of linoleic acid peroxidation, followed by oxygen consumption after thermal initiation by ABIP; assay type: biochemical; details: 37 °C; for decrease in oxygen consumption (inhibition of lipid peroxidation): radical reaction thermally initiated by ABIP, after addition of antioxidant
Description: The effect of the antioxidants on lipid peroxidation was verified by measuring the quantity of oxygen consumed at 37 °C as a consequence of the radical reaction thermally initiated by ABIP.

[2] = Spin labelling (EPR) with n-SASL to find the position in the membrane; assay type: physicochemical; details: for position of the reactive hydroxyl group in the bilayer: EPR, DPPC liposomes; for location of the molecule in the bilayer: EPR spectra of n-SASL (positions 5, 7, 10, 12, 16) in DPPC liposomes
Description: (§1) As the antioxidant efficacy of both products is related to their partitioning between the water and lipid phase and to their position in the membrane bilayer, an investigation was carried out on the interactions of resveratrol and piceid in multilamellar liposomes of saturated L-alpha-phosphatidylcholine (PC) of various chain lengths (dimyristoyl, DMPC; dipalmitoyl, DPPC; distearoyl, DSPC) to determine: a) partition coefficients of the stilbenes between liposomes and water; b) modification of lipid bilayer organization; c) their position in the membrane using differential calorimetric analysis (DSC) and spin labelling (EPR).

[3] = Partition coefficients of the stilbenes between liposomes and water; assay type: physicochemical; details: for partitioning between water and lipid phase: liposomes / water
Description: as §1

[4] = Free radical neutralization followed spectrophotometrically (disappearance of the band at 515 nm); assay type: biochemical; details: radical neutralizing activity, spectrophotometric
Excerpt: (§2) With DHHP, the radical neutralizing activity was instead followed spectrophotometrically by measuring the initial rate (Vo) of the disappearance of its characteristic band at 515 nm. […] It was also required to verify whether the two products examined are able to react with the free radical initiators before the latter activate lipid peroxidation in the membrane.

[5] = Differential calorimetric analysis (DSC) of the gel-to-fluid transition of liposomes; assay type: physicochemical; details: DMPC, DPPC, DSPC multilamellar liposomes at increasing stilbene concentrations
Description: as §1

[6] = Reaction with free radicals and radical initiators before they activate lipid peroxidation; assay type: biochemical
Excerpt: as §2

SMILES: Cc1cc(C(C)(C)C)c(O)c(C(C)(C)C)c1 [BHT, 2,6-di-tert-butyl-4-methyl-phenol, reference compound]
- decrease in oxygen consumption (inhibition of lipid peroxidation) [1]: brief initial period of strong inhibition
- position of the reactive hydroxyl group in the bilayer [2]: located more deeply

SMILES: OC[C@H]1O[C@@H](Oc2cc(O)cc(/C=C/c3ccc(O)cc3)c2)[C@H](O)[C@@H](O)[C@@H]1O [piceid]
- duration of the inhibitory effect on oxygen consumption ([1]; ABIP-initiated, compared with vitamin E and BHT): more prolonged effect over time
- decrease in oxygen consumption (inhibition of lipid peroxidation) [1]: steady decrease in oxygen consumption greater than that of vitamin E and BHT
- hydrophobicity from partition coefficient measurements ([3]; between liposomes and water): less hydrophobic than resveratrol
- partitioning between water and lipid phase [3]: sufficiently lipophilic to partition themselves almost exclusively in the lipid phase
- initial rate (Vo) of the disappearance of its characteristic band at 515 nm [4]: comparable to those of BHT (although lower than those of vitamin E)
- location of the molecule in the bilayer [2]: located in the hydrophobic region of the bilayer although piceid is closer to the hydrophilic region
- position of the reactive hydroxyl group in the bilayer [2]: very close to the two double bonds of the polyunsaturated fatty acids (PUFA)
- DSC profiles of the gel-to-fluid state transition [5]: broadened and shifted towards lower temperatures
- reactivity with the free radicals and radical initiators under examination ([6]; in water, before initiators activate lipid peroxidation in the membrane): react with all the free radicals and radical initiators under examination
- effectiveness (quantitative evaluations) ([6]; piceid compared with resveratrol): more effective than resveratrol

SMILES: Oc1ccc(C=Cc2cc(O)cc(O)c2)cc1 [resveratrol]
- partitioning between water and lipid phase [3]: sufficiently lipophilic to partition themselves almost exclusively in the lipid phase
- location of the molecule in the bilayer [2]: located in the hydrophobic region of the bilayer
- position of the reactive hydroxyl group in the bilayer [2]: very close to the two double bonds of the polyunsaturated fatty acids (PUFA)
- DSC profiles of the gel-to-fluid state transition [5]: broadened and shifted towards lower temperatures

SMILES: Cc1c(C)c2c(c(C)c1O)CC[C@@](C)(CCC[C@H](C)CCC[C@H](C)CCCC(C)C)O2 [vitamin E, alpha-tocopherol, reference compound]
- decrease in oxygen consumption (inhibition of lipid peroxidation) [1]: brief initial period of strong inhibition
- position of the reactive hydroxyl group in the bilayer [2]: more displaced towards the polar surface
